Measured values taken from publication PMC9378861, “Formation and metabolism of 6-(1-acetol)-8-(1-acetol)-rutin in foods and in vivo, and their cytotoxicity” (Frontiers in Nutrition, 2022).
Values joined by “and” are separate entries in the source; they are usually repeats but may differ in a detail not shown here. Identical values can stand only once. Each block holds one molecule with its values, some of them ahead of it.

What was measured:
[1] = cited from earlier work; for Elimination rate on MGO (MGO scavenged): incubated with MGO at 37°C for 24 h
[2] = Rutin-MGO adducts in tissues, urine and feces of rats 24 h after oral rutin; format: in vivo, Sprague–Dawley rats; conditions: for Concentration in feces: feces collected within 24 h after rutin 100 mg/kg BW oral; for Concentration in urine: urine collected within 24 h after rutin 100 mg/kg BW oral
Procedure: (§1) The animals were treated as described in the study by Chen et al. ([22]). In brief, five 7 weeks old male Sprague–Dawley rats (190–220 g) were exposed to rutin (100 mg/kg BW) by oral gavage after fasting for 16 h. The plasma samples were collected at 0.25, 0.5, 1, 2, 4, 6, 8, 10, and 24 h after the administration, and stored under −80°C until analysis. The feces and urine were collected with the metabolic cages throughout the 24 h period. At 24 h, the rats were sacrificed after anesthetization, and the tissues including stomach, intestine (divided into duodenum, jejunum, ileum, caecum, and colon), heart, liver, kidney, and brain were taken and frozen immediately in liquid nitrogen and transferred to a deep freezer (−80°C) for storage before analysis. The procedures of the animal study followed the protocol by the Institutional Animal Care and Use Committee of the Laboratory Animal Center of Jinan University.
(§2) The plasma samples were treated as described by Chen et al. ([22]). About half gram of feces and tissue samples were weight accurately, and homogenized with 2 mL saline on an ice-bath. The homogenates were transferred to a centrifuge tube, added with 1 mL PBS (pH 5.0, 0.05 M) and 100 μL ascorbic acid (150 mg/mL), and extracted with 3 mL of methanol twice. The supernatants were combined after centrifugation at 13,000 × g under 4 °C for 10 min, evaporated to dryness, re-dissolved in 500 μL of 50% aqueous methanol containing 0.1% formic acid (v/v), and filtered through a 0.22 μm membrane for HPLC-MS/MS analysis. The adducts in 200 μL of urine were extracted twice with 1 mL methanol. The supernatants were collected after centrifugation at 13,000 × g under 4°C for 10 min, and evaporated to dryness. The residues were dissolved in 200 μL of 50% aqueous methanol containing 0.1% formic acid (v/v), and filtered through a 0.22 μm membrane for HPLC-MS/MS analysis. A sample of 1 μL was injected into an Agilent Technologies 1,260 Infinity HPLC (Agilent Technologies, CA, USA) interfaced to an AB 4500 Q-Trap mass spectrometer (AB Sciex, MA, USA) in the negative mode for quantification of adducts A and B, respectively. The eluting programs for HPLC analysis, and the operation conditions of mass spectrometer refers to those established by Chen et al. ([22]). […] Moreover, as the information on the occurrence levels of 6-(1,2-propanedione)-8-(1-acetol)-rutin, 6-(1-acetol)-8-(1,2-propanedione)-rutin, and 6-(1,2-propanedione)-8-(1,2-propanedione)-rutin discovered in the last study was still missing, the concentration of these oxidized rutin-MGO adducts in various tissues and urine and feces were also determined in this study. The qualification and quantification fragmentation transitions of these adducts refers to those provided previously ([22]).

[3] = rats, 15 min after administration of rutin; cited from earlier work
[4] = system: human gastric epithelial cell line (GES-1); assay: Cytotoxicity by MTT assay, GES-1; format: cell-based; conditions: 24 h
[5] = system: human umbilical vein endothelial (HUVEC) cell; assay: Cytotoxicity by MTT assay, HUVEC; format: cell-based; conditions: 1 mM, 24 h
[6] = system: human colon carcinoma cell line (Caco-2); assay: Cytotoxicity by MTT assay, Caco-2; format: cell-based; conditions: Caco-2, 1 mM, 24 h
[7] = Plasma concentration of rutin-MGO adducts in rats after oral rutin (HPLC-MS/MS, MRM); format: in vivo, Sprague–Dawley rats
Procedure: as §1, §2

AGEs = conditions: cited from earlier work
[8] = parameters: method as in PMID 19916501; conditions: anesthetized, mesenteric lymphatic/duodenum-cannulated rat model; cited from earlier work
[9] = 24 h after rutin 100 mg/kg BW oral
[10] = rutin 100 mg/kg BW oral gavage, time point 0.25 h
[11] = rutin 100 mg/kg BW oral gavage, time point 1.00 h
[12] = rutin 100 mg/kg BW oral gavage, time point 2.00 h

SMILES: O=C(O[C@@H]1Cc2c(O)cc(O)cc2O[C@@H]1c1cc(O)c(O)c(O)c1)c1cc(O)c(O)c(O)c1 [(–)-epigallocatechin gallate]
Elimination rate on MGO (MGO scavenged) [1]: 99%

Concentration in brain [2, 9]: 0.45 ± 0.28 µg/kg
Concentration in colon [2, 9]: trace
Concentration in heart [2, 9]: trace
Concentration in ileum [2, 9]: trace
Concentration in kidney [2, 9]: 0.12 ± 0.02 µg/kg
Concentration in liver [2, 9]: trace
Concentration in stomach [2, 9]: trace
Concentration in feces [2]: 2.23 ± 0.54 µg/kg
Concentration in urine [2]: 0.09 ng/mL and 0.09 ± 0.00 ng/mL
SMILES: CC(=O)C(=O)c1c(O)c(C(O)C(C)=O)c(O)c2c(=O)c(O[C@@H]3O[C@H](CO[C@@H]4O[C@@H](C)[C@H](O)[C@@H](O)[C@H]4O)[C@@H](O)[C@H](O)[C@H]3O)c(-c3ccc(O)c(O)c3)oc12 (stereo partly shown) [6-(1-acetol)-8-(1,2-propanedione)-rutin]
Plasma concentration of oxidized rutin-MGO adducts [3]: 1.61 ng/mL

SMILES: O=c1cc(-c2ccc(O)cc2)oc2cc(O)cc(O)c12 [apigenin]
Elimination rate on MGO (MGO scavenged) [1]: 40%

SMILES: Oc1cc(O)c2c(c1)O[C@H](c1ccc(O)c(O)c1)[C@H](O)C2 [epicatechin]
Elimination rate on MGO (MGO scavenged) [1]: 99%

Concentration in brain [2, 9]: 0.12 ± 0.02 µg/kg
Concentration in caecum [2, 9]: trace
Concentration in heart [2, 9]: 0.14 ± 0.09 µg/kg
Concentration in ileum [2, 9]: trace
Concentration in kidney [2, 9]: 0.16 ± 0.04 µg/kg
Concentration in liver [2, 9]: 0.09 µg/kg and 0.09 ± 0.01 µg/kg
Concentration in stomach [2, 9]: 0.10 µg/kg and 0.10 ± 0.01 µg/kg
Concentration in feces [2]: 0.26 ± 0.18 µg/kg
Content in feces, folds lower than 6-(1,2-propanedione)-8-(1-acetol)-rutin and 6-(1-acetol)-8-(1,2-propanedione)-rutin ([2]; feces within 24 h after rutin 100 mg/kg BW oral): 6–9 folds
Concentration in urine [2]: 0.10 ng/mL and 0.10 ± 0.01 ng/mL
SMILES: CC(=O)C(=O)c1c(O)c(C(=O)C(C)=O)c2oc(-c3ccc(O)c(O)c3)c(O[C@@H]3O[C@H](CO[C@@H]4O[C@@H](C)[C@H](O)[C@@H](O)[C@H]4O)[C@@H](O)[C@H](O)[C@H]3O)c(=O)c2c1O [6-(1,2-propanedione)-8-(1,2-propanedione)-rutin]
Plasma concentration of oxidized rutin-MGO adducts [3]: 1.02 ng/mL

SMILES: O=C(CCc1ccc(O)cc1)c1c(O)cc(O)cc1O [phloretin]
Elimination rate on MGO (MGO scavenged) [1]: 99%

Concentration in kidney [2, 9]: trace
Concentration in feces [2]: Trace
concentration at 0.25 h ([7]; male, Sprague-Dawley, rat, plasma, oral, rutin 100 mg/kg BW oral gavage, time point 0.25 h): 9.4 ng/mL
Plasma concentration [7, 10]: 9.40 ± 6.37 ng/mL
Plasma concentration [7, 11]: trace
Plasma concentration [7, 12]: trace
Plasma concentration ([7]; rutin 100 mg/kg BW oral gavage, time point 10.00 h): trace
SMILES: CC(=O)C(O)c1c(O)c(C(O)C(C)=O)c2oc(-c3ccc(O)c(O)c3)c(OC3OC(COC4OC(C)C(O)C(O)C4O)C(O)C(O)C3O)c(=O)c2c1O (stereo not shown) [Adduct A, 6-(1-acetol)-8-(1-acetol)-rutin]
Reduction of cell viability (cells dead) ([4]; GES-1, 1 mM): 27%
Reduction of cell viability (cells dead) [5]: 19%
Reduction of cell viability (cells dead) [6]: 19%

Concentration in brain [2, 9]: 0.11 ± 0.02 µg/kg
Concentration in heart [2, 9]: 0.09 ± 0.03 µg/kg
Concentration in ileum [2, 9]: trace
Concentration in kidney [2, 9]: 0.07 ± 0.01 µg/kg
Concentration in liver [2, 9]: trace
Concentration in feces [2]: 1.54 ± 0.49 µg/kg
Concentration in urine [2]: trace
SMILES: CC(=O)C(=O)c1c(O)c(C(O)C(C)=O)c2oc(-c3ccc(O)c(O)c3)c(OC3OC(COC4OC(C)C(O)C(O)C4O)C(O)C(O)C3O)c(=O)c2c1O (stereo not shown) [6-(1,2-propanedione)-8-(1-acetol)-rutin]
Plasma concentration of oxidized rutin-MGO adducts [3]: 2.38 ng/mL

SMILES: COc1ccc([C@@H]2CC(=O)c3c(O)cc(O)cc3O2)cc1O [hesperetin]
Elimination rate on MGO (MGO scavenged) [1]: 63%

Concentration in kidney [2, 9]: trace
Concentration in feces [2]: Trace
Plasma concentration [7, 10]: 6.40 ng/mL and 6.40 ± 3.90 ng/mL
Plasma concentration [7, 11]: trace
Plasma concentration [7, 12]: trace
Plasma concentration ([7]; rutin 100 mg/kg BW oral gavage, time point 8.00 h): trace
Plasma concentration ([7]; rutin 100 mg/kg BW oral gavage, time point 24.00 h): trace
SMILES: CC(=O)C(O)c1c(O)c(C(O)C(C)=O)c2oc(-c3ccc(O)c(O)c3)c(OC3OC(COC4OC(C)C(O)C(O)C4O)C(O)C(O)C3O)c(=O)c2c1O (stereo not shown) [Adduct B, 6-(1-acetol)-8-(1-acetol)-rutin]
Reduction of cell viability (cells dead) ([4]; GES-1, 1 mM): 25%
Reduction of cell viability (cells dead) [5]: 16%
Reduction of cell viability (cells dead) [6]: 18%

SMILES: C[C@@H]1O[C@@H](OC[C@H]2O[C@@H](Oc3c(-c4ccc(O)c(O)c4)oc4cc(O)cc(O)c4c3=O)[C@H](O)[C@@H](O)[C@@H]2O)[C@H](O)[C@H](O)[C@H]1O [rutin, quercetin-3-O-rutinoside]
Reduction of cell viability (cells dead) ([4]; GES-1, 1 mM): 16%
Reduction of cell viability (cells dead) [5]: 12%
MGO eliminated ([1]; rutin 0.5 mM with MGO 0.5 mM, 37 °C, 24 h, simulated physiological condition): 50%
Reduction of cell viability (cells dead) [6]: 15%
Inhibitory effect on the formation of AGEs in glycation reaction (AGEs): more than 90%
Time at which plasma concentration reached maximum [8]: 60 min

Total (maximum) level in plasma, sum of adducts A and B ([7]; 15 min after oral rutin 100 mg/kg BW): 15.80 µg/L
SMILES: CC(=O)C(O)c1c(O)c(C(O)C(C)=O)c2oc(-c3ccc(O)c(O)c3)c(O[C@@H]3O[C@H](CO[C@@H]4O[C@@H](C)[C@H](O)[C@@H](O)[C@H]4O)[C@@H](O)[C@H](O)[C@H]3O)c(=O)c2c1O (stereo partly shown) [6-(1-acetol)-8-(1-acetol)-rutin]

SMILES: CC(=O)C=O [MGO, Methylglyoxal]
Growth of the cells inhibited ([4]; GES-1, 600 μM): more than 50%
Cells left alive ([4]; GES-1, 1 mM): 17%
Growth of the cells inhibited ([4]; GES-1, 200–400 μM): 18–19%
